Data on one compound can be found in PMC4536998 (Oncotarget, 2015).

This experiment has as its target T1, embryonic ectoderm development (EED) (Homo sapiens, UniProt O75530).
T1 construct: recombinant EED
As to the kind of experiment: SPR (Biacore […], EED immobilized on CM5 chip, […] Langmuir fit); supported by competitive co-IP against EZH2. Format: binding. (In general: Surface plasmon resonance follows binding to a sensor surface in real time, without labels.)

T1 sequence (O75530 2-441): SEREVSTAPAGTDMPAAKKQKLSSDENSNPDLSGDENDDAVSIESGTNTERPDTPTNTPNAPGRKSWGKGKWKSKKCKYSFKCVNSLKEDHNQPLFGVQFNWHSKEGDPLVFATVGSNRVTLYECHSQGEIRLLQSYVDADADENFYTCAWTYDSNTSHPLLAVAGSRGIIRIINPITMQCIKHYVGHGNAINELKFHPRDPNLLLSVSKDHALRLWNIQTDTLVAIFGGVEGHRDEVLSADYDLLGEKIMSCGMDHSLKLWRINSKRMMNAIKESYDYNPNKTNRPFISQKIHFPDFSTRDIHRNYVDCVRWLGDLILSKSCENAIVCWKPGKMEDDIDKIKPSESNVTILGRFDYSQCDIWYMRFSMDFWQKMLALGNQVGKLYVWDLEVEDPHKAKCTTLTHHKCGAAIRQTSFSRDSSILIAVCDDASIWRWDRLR

In the case of `O=C(O[C@@H]1Cc2c(O)cc(O)cc2O[C@@H]1c1cc(O)c(O)c(O)c1)c1cc(O)c(O)c(O)c1` [1E7, EGCG], the Kd (commonly the equilibrium constant for the complex coming apart) worked out at 15.1 µM.
